# From patent publication US10533010B2, “Substituted indole Mcl-1 inhibitors” (Vanderbilt University, priority 2014, dated 2020)
# Where two headings read alike, the source gives them in different places.
# Key:
# ALMC-2 = assay: Cellular viability (Cell TiterGlo) ALMC-2; assay type: cell-based; conditions: Homo sapiens, ALMC2; ALMC-2 cells, 72 hours, 10% FBS; read-out: IC50 on cellular proliferation, ALMC-2
# Protocol: (§1) Human cancer cell lines ALMC-1, ALMC-2, K562, H929, and OPM-2 were cultured in media supplemented with 10% fetal bovine serum (FBS). To evaluate compound effect on cellular proliferation, cells were plated at 1,000 cells/well in 96-well tissue culture plates in a total volume of 90 μL medium supplemented with 10% FBS (Sigma, Saint Louis, Mo.). 24 hours later, 10 μL of compound (in a 2-fold serial dilution) is added to the cells for a top concentration of 50 μM and a final DMSO concentration <1%. After 72 hours, 50 μL of Cell TiterGlo (Promega, Madison, Wis., USA) reagent is added to each well and plates are incubated at room temperature, in the dark, for 30 minutes. Luminescence is measured on a BioTek Cytation 3. Luminescence values are imported into a template in XLFit (Guildford, Surrey, UK) that uses a four-parameter fit to generate an IC50 value for each compound dilution series on the plate.
# H929 [1] = assay: Cellular viability (Cell TiterGlo) H929; assay type: cell-based; conditions: Homo sapiens, NCI-H929; H929 cells, 72 hours, 10% FBS; read-out: IC50 on cellular proliferation, H929
# Protocol: as §1
# K562 = assay: Cellular viability (Cell TiterGlo) K562; assay type: cell-based; conditions: Homo sapiens; K562 cells, 72 hours, 10% FBS; read-out: IC50 on cellular proliferation, K562
# Protocol: as §1
# ALMC-1 = assay: Cellular viability (Cell TiterGlo) ALMC-1; assay type: cell-based; conditions: Homo sapiens, ALMC1; ALMC-1 cells, 72 hours, 10% FBS; read-out: IC50 on cellular proliferation, ALMC-1
# Protocol: as §1
# [2] = biological target: recombinant Mcl-1 (residues 172-327) (Homo sapiens (Human), UniProt Q07820); assay: Fluorescence polarization anisotropy competition assay (FITC-Bak or FITC-Bim BH3 peptide) with Mcl-1; assay type: binding
# Chain of recombinant Mcl-1 (residues 172-327) (Q07820 172-327): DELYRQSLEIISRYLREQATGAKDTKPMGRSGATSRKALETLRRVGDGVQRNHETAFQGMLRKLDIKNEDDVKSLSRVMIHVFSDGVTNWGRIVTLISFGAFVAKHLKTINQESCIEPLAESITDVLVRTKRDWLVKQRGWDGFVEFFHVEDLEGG
# OPM-2 = assay: Cellular viability (Cell TiterGlo) OPM-2; assay type: cell-based; conditions: Homo sapiens; OPM-2 cells, 72 hours, 10% FBS; read-out: IC50 on cellular proliferation, OPM-2
# Protocol: as §1
# [3] = biological target: Bcl-2 (residues 1-207 A96T,G110R, Δ35-91, replaced with Bcl-xL35-50) (Homo sapiens, UniProt P10415, A37E/DEL42-87/G36T/INS34DVEEN/P40E/P88T/P90S/P91E/V35R/V89E); assay: Fluorescence polarization anisotropy competition selectivity assay (FITC-Bak peptide) with Bcl-2; assay type: binding; conditions: Table 3; 40 nM Bcl-2, 10 nM FITC-Bak
# Protocol: (§2) Compound affinity was measured using a fluorescence polarization anisotropy competition assay. Anisotropy measurements were carried out in 384-well, black, flat-bottom plates (Greiner Bio-one, Monroe, N.C., USA). The assay was run using either a fluorescein isothiocyanate-labeled BH3 peptide derived from Bak (FITC-AHx-[…]-NH2) or a fluorescein isothiocyanate-labeled BH3 peptide derived from Bim (FITC-AHx-[…]-NH2) that were purchased from GenScript (Piscataway, N.J.) at >95% purity and used without further purification. 10 nM FITC-Bak peptide and 15 nM recombinant Mcl-1 (residues 172-327) were added to assay buffer (3 mM dithiothreitol, 50 mM NaCl, 20 mM Tris, pH 7.5). The Bim based assay was run with 1 nM FITC-Bim peptide and 1.5 nM recombinant Mcl-1 (residues 172-327) added to assay buffer (20 mM TRIS pH 7.5, 50 mM NaCl, 3 mM DTT, 0.01% CHAPS). For selectivity assays, 40 nM Bcl-2 (residues 1-207^A96T,G110R, Δ35-91, replaced with Bcl-xL35-50) or 4 nM Bcl-xL (residues 1-209, loop 45-86 deleted) were incubated with 10 nM FITC-Bak in assay buffer.
# (§3) Compounds are diluted in DMSO in a 10-point, 3-fold serial dilution scheme. For the FITC-BAK assay 2.5 uL compound is added to 47.5 μL of assay buffer containing FITC-Bak and protein, for a final DMSO concentration of 5% and a top concentration of 20 μM. […] […]. The plate was mixed and incubated for 90 minutes at room temperature. Anisotropy is measured at excitation wavelength 480 nm and emission wavelength 535 nm using an EnVision Multi-label plate reader (PerkinElmer, Wellesley, Mass., USA) or a BioTek Cytation 3 (BioTek, Winooski, Vt., USA). […] IC50 is converted to a binding dissociation constant (Ki value) according to the formula of Wang Z. FEBS Lett (1996) 3, 245.
# [4] = biological target: Bcl-xL (residues 1-209, loop 45-86 deleted) (Homo sapiens (Human), UniProt Q07817, DEL45-86); assay: Fluorescence polarization anisotropy competition selectivity assay (FITC-Bak peptide) with Bcl-xL; assay type: binding; conditions: Table 3; 4 nM Bcl-xL, 10 nM FITC-Bak
# Chain of Bcl-xL (residues 1-209, loop 45-86 deleted) (Q07817 other isoform, or with tags, fused parts or gaps del 45-86): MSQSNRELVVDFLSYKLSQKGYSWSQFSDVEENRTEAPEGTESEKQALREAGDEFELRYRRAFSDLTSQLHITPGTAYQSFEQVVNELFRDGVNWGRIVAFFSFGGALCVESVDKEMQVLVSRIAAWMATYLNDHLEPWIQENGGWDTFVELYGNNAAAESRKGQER
# Protocol: as §2, §3
# H929 [5] = assay: Apoptosis assay (Caspase 3/7 Glo) H929; assay type: cell-based; conditions: Homo sapiens, NCI-H929; H929 cells, 3 hours, 5% FBS; read-out: EC50 on cellular caspase 3/7 activation, H929
# Protocol: Induction of apoptosis was measured by quantifying caspase 3/7 activity using the commercially available Caspase-Glo reagent (Promega, Madison, Wis., USA). This assay relies on the cleavage of a proluminescent substrate by activated caspases, which is then detected on the BioTek Cytation 3. 5000 cells in 90 μL of media (+5% FBS) are plated in each well of a white 96-well plate and incubated overnight at 37° C. in a tissue culture incubator. The following day, compound is diluted in a 10-pt, 2-fold serial dilution scheme for a final top concentration of 50 μM. 10 μL of compound is added directly to the cell assay plate for a final volume of 100 μL. Columns 11 and 12 are reserved for treatment with DMSO to serve as control wells. Plates are incubated for 3 hours. 100 μL of Caspase-Glo reagent is added to each well and plates are incubated at room temperature, in the dark, for 30 minutes. Luminescence is measured on the Cytation 3. Luminescence values are imported into a template in XLFit (Guildford, Surrey, UK) that uses a four-parameter fit to generate an IC50 value for each compound dilution series on the plate.
# [6] = Table 2, Ki bins given in nM, FITC-Bak or FITC-Bim peptide competition, Ki converted from IC50, read-out: Ki for Inhibition of Mcl-1
SMILES,IC50 (H929 [1]) [µM],IC50 (K562) [µM],"Ki [2, 6] [nM]",EC50 (H929 [5]) [µM],IC50 (ALMC-2) [µM],IC50 (ALMC-1) [µM],IC50 (OPM-2) [µM],Ki [3] [µM],"Ki ([2]; Table 3, selectivity panel, read-out: Mcl-1 Ki) [nM]",Ki [4] [µM]
"Cc1cc(OCCCc2c3n(c4c(-c5c(C)nn(C)c5C)cccc24)CCN(Cc2cccc(C(=O)O)c2)C3=O)cc(C)c1Cl [I-31, 3-((10-(3-(4-chloro-3,5-dimethylphenoxy)propyl)-1-oxo-6-(1,3,5-trimethyl-1H-pyrazol-4-yl)-3,4-dihydropyrazino[1,2-a]indol-2(1H)-yl)methyl)benzoic acid]",15,40,[…],–,33.9,13.1,16.3,2.2,[…],6.44
"Cc1cc(C(=O)O)cc(N2CCCn3c(c(CCCOc4cc(C)c(Cl)c(C)c4)c4ccc(Cl)c(-c5c(C)nn(C)c5C)c43)C2=O)c1 [I-220, 3-(8-chloro-11-(3-(4-chloro-3,5-dimethylphenoxy)propyl)-1-oxo-7-(1,3,5-trimethyl-1H-pyrazol-4-yl)-4,5-dihydro-1H-[1,4]diazepino[1,2-a]indol-2(3H)-yl)-5-methylbenzoic acid]",4.9,14.8,< 50,–,–,–,–,–,–,–

# Further lines, with some results ahead:
IC50 (H929 [1]) [µM],IC50 (K562) [µM],"Ki [2, 6] [nM]",EC50 (H929 [5]) [µM],SMILES,IC50 (ALMC-2) [µM],IC50 (ALMC-1) [µM],IC50 (OPM-2) [µM],Ki [3] [µM],"Ki ([2]; Table 3, selectivity panel, read-out: Mcl-1 Ki) [nM]",Ki [4] [µM]
7.3,25,< 50,–,"Cc1cc(OCCCc2c3n(c4c(-c5c(C)nn(C)c5C)c(Cl)ccc24)CCCN(c2cccc(CC(=O)O)c2)C3=O)cc(C)c1Cl [I-236, 2-(3-(8-chloro-11-(3-(4-chloro-3,5-dimethylphenoxy)propyl)-1-oxo-7-(1,3,5-trimethyl-1H-pyrazol-4-yl)-4,5-dihydro-H-[1,4]diazepino[1,2-a]indol-2(3H)-yl)phenyl)acetic acid]",12.2,6.9,7.2,–,–,–
8.7,11.8,< 50,3.1,"Cc1cc(OCCCc2c3n(c4c(-c5c(C)nn(C)c5C)c(Cl)ccc24)CCN(c2cccc(C(=O)O)c2)C3=O)cc(C)c1Cl [I-178, 3-(7-chloro-10-(3-(4-chloro-3,5-dimethylphenoxy)propyl)-1-oxo-6-(1,3,5-trimethyl-1H-pyrazol-4-yl)-3,4-dihydropyrazino[1,2-a]indol-2(1H)-yl)benzoic acid]",8.7,6.1,11.7,–,–,–
–,–,< 50,2.3,"Cc1cc(OCCCc2c(C(=O)NC[C@H]3CC[C@H](C(=O)O)CC3)[nH]c3c(-c4c(C)nn(C)c4C)cccc23)cc(C)c1Cl [I-320, (1R,4R)-4-((3-(3-(4-chloro-3,5-dimethylphenoxy)propyl)-7-(1,3,5-trimethyl-1H-pyrazol-4-yl)-1H-indole-2-carboxamido)methyl)cyclohexane-1-carboxylic acid]",–,–,–,–,–,–
